Ki data for 13 compounds are collected here from patent publication US20110086834A1, “ALKYNYL ALCOHOLS AS KINASE INHIBITORS” (AMGEN INC., priority 2008, published 2011).

For this test, the target named is T1, NIK (Homo sapiens, UniProt Q99558).
T1 construct: Both assays utilize a truncated form of NIK containing only the catalytic domain; made in house; host or cells: baculovirus expression system (insect cells implied)
The test is described as follows: homogenous time resolved fluorescence (HTRF) assay for NIK Ki measurement. Conditions: truncated NIK (catalytic domain only), autophosphorylation; 10 nM enzyme; 20, 100, 200 or 500 μM ATP; room temperature, 2 hours; read-out: Ki activity in the homogenous time resolved fluorescence (HTRF) assay for NIK. Type of test: biochemical.

The structures appear in SMILES notation.

T1 sequence (Q99558 400-655 limits assumed): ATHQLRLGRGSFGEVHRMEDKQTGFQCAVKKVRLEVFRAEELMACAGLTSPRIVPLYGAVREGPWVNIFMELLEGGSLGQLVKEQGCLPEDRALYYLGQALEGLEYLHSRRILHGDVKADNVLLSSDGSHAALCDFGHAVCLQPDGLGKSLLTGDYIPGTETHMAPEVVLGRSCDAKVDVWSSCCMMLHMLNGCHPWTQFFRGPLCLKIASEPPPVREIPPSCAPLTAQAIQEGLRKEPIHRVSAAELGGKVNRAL

Take `CN1CC[C@](O)(C#Cc2ccc3c(c2)N(c2nc(N)ncc2Cl)CC3(C)C)C1=O` [Example 44, (3S)-3-((1-(2-amino-5-chloro-4-pyrimidinyl)-3,3-dimethyl-2,3-dihydro-1H-indol-6-yl)ethynyl)-3-hydroxy-1-methyl-2-pyrrolidinone]: the inhibition constant Ki is under 1 µM.

As to `Cn1cnc(C(C)(O)C#Cc2ccc3c(c2)N(c2nc(N)ncc2Cl)CC3(C)C)c1` (stereo not shown) [Example 45, 4-(1-(2-amino-5-chloro-4-pyrimidinyl)-3,3-dimethyl-2,3-dihydro-1H-indol-6-yl)-2-(1-methyl-1H-imidazol-4-yl)-3-butyn-2-ol], the Ki was under 1 µM.

Consider `Cn1cnc(C(O)C#Cc2ccc3c(c2)N(c2nc(N)ncc2Cl)CC3(C)C)c1` (stereo not shown) [Example 46, 3-(1-(2-amino-5-chloro-4-pyrimidinyl)-3,3-dimethyl-2,3-dihydro-1H-indol-6-yl)-1-(1-methyl-1H-imidazol-4-yl)-2-propyn-1-ol], for which the inhibitory constant (Ki) is under 1 µM.

With `COC(=O)C(C)(O)C#Cc1ccc2c(c1)N(c1nc(N)ncc1Cl)CC2(C)C` (stereo not shown) [Example 48, methyl 4-(1-(2-amino-5-chloro-4-pyrimidinyl)-3,3-dimethyl-2,3-dihydro-1H-indol-6-yl)-2-hydroxy-2-methyl-3-butynoate], the Ki is under 1 µM.

In the case of `CNC(=O)C(C)(O)C#Cc1ccc2c(c1)N(c1nc(N)ncc1Cl)CC2(C)C` (stereo not shown) [Example 49, 4-(1-(2-amino-5-chloro-4-pyrimidinyl)-3,3-dimethyl-2,3-dihydro-1H-indol-6-yl)-2-hydroxy-N,2-dimethyl-3-butynamide], the inhibition constant (Ki) was under 1 µM.

With `CC(O)(C#Cc1ccc2c(c1)N(c1nc(N)ncc1Cl)CC2(C)C)C(=O)N1CCCC1` (stereo not shown) [Example 50, 4-(1-(2-amino-5-chloro-4-pyrimidinyl)-3,3-dimethyl-2,3-dihydro-1H-indol-6-yl)-2-methyl-1-oxo-1-(1-pyrrolidinyl)-3-butyn-2-ol], the Ki was under 1 µM.

Regarding `CC1(CO)CN(c2nc(N)ncc2Cl)c2cc(C#CC3(O)CCCC3)ccc21` (stereo not shown) [Example 54, 1-((1-(2-amino-5-chloro-4-pyrimidinyl)-3-(hydroxymethyl)-3-methyl-2,3-dihydro-1H-indol-6-yl)ethynyl)cyclopentanol], the Ki is under 1 µM.

With `CC(O)(C#Cc1ccc2c(c1)N(c1ccncc1)CC2(CO)CO)c1nccs1` (stereo not shown) [Example 59, 4-(3,3-bis(hydroxymethyl)-1-(4-pyridinyl)-2,3-dihydro-1H-indol-6-yl)-2-(1,3-thiazol-2-yl)-3-butyn-2-ol], the inhibition constant (Ki) was under 1 µM.

As to `CC(O)(C#Cc1ccc2c(c1)N(c1nc(N)ncc1Cl)CC2(CO)CO)c1nccs1` (stereo not shown) [Example 60, 4-(1-(2-amino-5-chloro-4-pyrimidinyl)-3,3-bis(hydroxymethyl)-2,3-dihydro-1H-indol-6-yl)-2-(1,3-thiazol-2-yl)-3-butyn-2-ol], the inhibition constant (Ki) was under 1 µM.

Turning to `Nc1ncc(Cl)c(N2CC(CO)(CO)c3ccc(C#CC4(O)CCCC4)cc32)n1` [Example 62, 1-((1-(2-amino-5-chloro-4-pyrimidinyl)-3,3-bis(hydroxymethyl)-2,3-dihydro-1H-indol-6-yl)ethynyl)cyclopentanol], the inhibition constant Ki is under 1 µM.

For `CC1(CCCO)CN(c2nc(N)ncc2Cl)c2cc(C#CC3(O)CCCC3)ccc21` (stereo not shown) [Example 63, 1-((1-(2-amino-5-chloro-4-pyrimidinyl)-3-(3-hydroxypropyl)-3-methyl-2,3-dihydro-1H-indol-6-yl)ethynyl)cyclopentanol], the inhibition constant Ki is under 1 µM.

As for `COCCC1(C)CN(c2nc(N)ncc2Cl)c2cc(C#CC3(O)CCCC3)ccc21` (stereo not shown) [Example 64, 1-((1-(2-amino-5-chloro-4-pyrimidinyl)-3-(2-methoxyethyl)-3-methyl-2,3-dihydro-1H-indol-6-yl)ethynyl)cyclopentanol], the inhibition constant Ki is under 1 µM.

Consider `CC1(C)CN(c2nc(N)ncc2F)c2cc(C#CC3(O)CCCC3)ccc21` [Example 65, 1-((1-(2-amino-5-fluoro-4-pyrimidinyl)-3,3-dimethyl-2,3-dihydro-1H-indol-6-yl)ethynyl)cyclopentanol], for which the Ki is under 1 µM.
